Experimental data published in PMC9000710, “Synthesis and Hemostatic Activity of New Amide Derivatives” (Molecules, 2022).
“Also recorded” adds a separate entry of the source.

How the values were obtained:
human blood plasma [1] = assay: Activated partial thromboplastin time (aPTT) clotting assay; assay type: biochemical
human blood plasma [2] = assay: Clot formation and fibrinolysis (CFF) assay; assay type: biochemical; conditions: for Amax (maximum of fibrin clot absorbance at 360 nm) / VmaxC (of Fibrin Polymerization) / VmaxF (of Fibrin Clot Lysis): control plasma assumed as 100%, mean ± SD, n = 5–7; for effect on fibrin polymerization (VmaxC) in words: tested at 10, 25, 50 mg/L
How it was run: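 Human plasma preincubated 15 min at 37 °C with test substances (10, 25, 50 mg/L final), then mixed with thrombin (0.75 U/mL), t-PA (225 ng/mL) and 7.5 mM CaCl2 in TBS pH 7.4. Absorbance at 360 nm followed 60 min at 37 °C; VmaxC, Amax and VmaxF derived.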

[3] = Hemolysis assay (stability of erythrocytes); assay type: cell-based, human; conditions: male, human, heparinized whole blood diluted with saline (erythrocytes)
erythrocytes = assay: Hemolysis assay (stability of erythrocytes); assay type: cell-based, human
human blood plasma [4] = assay: Thrombin time (TT) clotting assay; assay type: biochemical
human blood plasma [5] = assay: Prothrombin time (PT) clotting assay; assay type: biochemical

## Cl.NCCCCCC(=O)NCC(=O)O [Amide 1, 2-(6-Aminohexanamido)acetic acid hydrochloride]
Human blood plasma [1]; c 10 mg/L
  aPTT Time [% of Control]: 108.3 ± 11.9 % of Control
Human blood plasma [1]; c 25 mg/L
  aPTT Time [% of Control]: 105.1 ± 7.7 % of Control
Human blood plasma [1]; c 50 mg/L
  aPTT Time [% of Control]: 101.9 ± 9.3 % of Control
Human blood plasma [1]; tested at 10, 25, 50 mg/L
  aPTT, effect versus control in words: not statistically significant
Human blood plasma [2]; 50 µg/mL
  fibrinolytic activity (VmaxF), effect in words: no statistically significant effect
Human blood plasma [2]; 10 mg/L
  Amax (maximum of fibrin clot absorbance at 360 nm): 105.98 ± 4.31 %
  VmaxC (of Fibrin Polymerization): 106.12 ± 4.28 %
  VmaxF (of Fibrin Clot Lysis): 99.08 ± 9.93%
Human blood plasma [2]; 25 mg/L
  Amax (maximum of fibrin clot absorbance at 360 nm): 107.24 ± 8.91%
  VmaxC (of Fibrin Polymerization): 105.66 ± 6.27%
  VmaxF (of Fibrin Clot Lysis): 87.32 ± 20.27%
Human blood plasma [2]; 50 mg/L
  Amax (maximum of fibrin clot absorbance at 360 nm): 104.62 ± 9.46%
  VmaxC (of Fibrin Polymerization): 104.20 ± 3.85 %
  VmaxF (of Fibrin Clot Lysis): 95.58 ± 15.97%
Human blood plasma [2]
  effect on fibrin polymerization (VmaxC) in words: Mild pro-coagulant effects
[3]; c 5 mg/L, 45 min
  hemolysis at 45 min, 5 mg/L: 0%
[3]; c 50 mg/L, 45 min
  hemolysis at 45 min, 50 mg/L: 0.5%
[3]; c 50 mg/L, 120 min
  hemolysis at 120 min, 50 mg/L: 0.18%
[3]; c 50 mg/L, 240 min
  hemolysis at 240 min, 50 mg/L: 0.35%
[3]; c 500 mg/L, 120 min
  hemolysis at 120 min, 500 mg/L: 0.56%
[3]; c 500 mg/L, 240 min
  hemolysis at 240 min, 500 mg/L: 0.42%
erythrocytes; c 500 mg/L, 45 min
  Hemolysis [%]: 0.27%
erythrocytes; c 500 mg/L, 120 min
  Hemolysis [%]: 0.59%
erythrocytes; c 500 mg/L, 240 min
  Hemolysis [%]: 0.58%
Human blood plasma [4]; c 10 mg/L
  TT Time [% of Control]: 95.9 ± 6.3 % of Control
Human blood plasma [4]; c 25 mg/L
  TT Time [% of Control]: 96.1 ± 6.8 % of Control
Human blood plasma [4]; c 50 mg/L
  TT Time [% of Control]: 94.3 ± 8.3 % of Control
Human blood plasma [5]; at all concentrations (10, 25, 50 mg/L)
  prothrombin time, effect versus control in words: significantly decreased
Human blood plasma [5]; c 10 mg/L
  PT Time [% of Control]: 96.3 ± 2.5 % of Control
Human blood plasma [5]; c 25 mg/L
  PT Time [% of Control]: 95.0 ± 2.9 % of Control
Human blood plasma [5]; c 50 mg/L
  PT Time [% of Control]: 95.7 ± 2.2 % of Control

## Cl.NCC(=O)NCCCCCC(=O)O [Amide 8, 6-(2-Aminoacetamido)hexanoic acid hydrochloride]
Human blood plasma [1]; c 10 mg/L
  aPTT Time [% of Control]: 95.1 ± 7.5 % of Control
Human blood plasma [1]; c 25 mg/L
  aPTT Time [% of Control]: 97.7 ± 5.9 % of Control
Human blood plasma [1]; c 50 mg/L
  aPTT Time [% of Control]: 95.2 ± 7.3 % of Control
Human blood plasma [2]; 10 mg/L
  Amax (maximum of fibrin clot absorbance at 360 nm): 104.83 ± 2.83 %
  VmaxC (of Fibrin Polymerization): 101.96 ± 6.62%
  VmaxF (of Fibrin Clot Lysis): 82.96 ± 12.49 %
Human blood plasma [2]; 25 mg/L
  Amax (maximum of fibrin clot absorbance at 360 nm): 100.18 ± 3.77%
  VmaxC (of Fibrin Polymerization): 100.98 ± 6.60%
  VmaxF (of Fibrin Clot Lysis): 96.07 ± 14.56%
Human blood plasma [2]; 50 mg/L
  Amax (maximum of fibrin clot absorbance at 360 nm): 108.64 ± 11.94%
  VmaxC (of Fibrin Polymerization): 105.67 ± 8.34%
  VmaxF (of Fibrin Clot Lysis): 66.90 ± 23.22 %
Human blood plasma [2]
  effect on fibrin polymerization (VmaxC) in words: did not influence
[3]; c 5 mg/L, 45 min
  hemolysis at 45 min, 5 mg/L: 0.08%
[3]; c 5 mg/L, 120 min
  hemolysis at 120 min, 5 mg/L: 0.74%
[3]; c 50 mg/L as printed in the third concentration block of amides 7 and 8, 45 min
  hemolysis at 45 min, 50 mg/L: 0%
[3]; c 50 mg/L as printed in the third concentration block of amides 7 and 8, 120 min
  hemolysis at 120 min, 50 mg/L: 0.47%
[3]; c 50 mg/L as printed in the third concentration block of amides 7 and 8, 240 min
  hemolysis at 240 min, 50 mg/L: 0.37%
[3]; c 50 mg/L, 45 min
  hemolysis at 45 min, 50 mg/L: 0.44%
[3]; c 50 mg/L, 120 min
  hemolysis at 120 min, 50 mg/L: 0.71%
[3]; c 50 mg/L, 240 min
  hemolysis at 240 min, 50 mg/L: 0.36%
erythrocytes; c 50 mg/L, 240 min
  Hemolysis [%]: 0.3%
other
  melting point: 120 to 123 °C
Human blood plasma [4]; c 10 mg/L
  TT Time [% of Control]: 100.0 ± 7.0 % of Control
Human blood plasma [4]; c 25 mg/L
  TT Time [% of Control]: 94.3 ± 1.3 % of Control
Human blood plasma [4]; c 50 mg/L
  TT Time [% of Control]: 92.4 ± 5.2 % of Control
Human blood plasma [4]; c = 25, and 50 mg/L
  TT, effect versus control in words: shorter TT than the control sample
Human blood plasma [5]; c 10 mg/L
  PT Time [% of Control]: 93.0 ± 2.2 % of Control
Human blood plasma [5]; c 25 mg/L
  PT Time [% of Control]: 95.5 ± 4.3 % of Control
Human blood plasma [5]; c 50 mg/L
  PT Time [% of Control]: 97.2 ± 3.2 % of Control
Human blood plasma [5]; concentration not specified (10, 25, 50 mg/L tested)
  prothrombin time, effect versus control in words: slightly but statistically significantly reduced
Human blood plasma [5]; lowest concentration (10 mg/L)
  prothrombin time, effect versus control in words: fell only slightly; also recorded: most effectively lowered
